These results are taken from patent US12454510B2, “Isophthalamide compound and use thereof” (METISA BIOTECHNOLOGY CO., LTD, priority 2019, dated 2025).

Format in all cases: in vivo
Assay [1] has as its system Chilo suppressalis. Nature of the assay: Insecticidal activity against Chilo suppressalis, sprayed Oryza sativa seedlings/stalks. The settings on record: for pest or weed control at 0.25 µg/mL / pest or weed control at 0.5 µg/mL / pest or weed control at 1 µg/mL: Chilo suppressalis, 72 h, 3 days after the treatment, 3rd instar larvae, read-out: lethality rate against Chilo suppressalis; for pest or weed control at 0.25 µg/mL: dose 0.25 mg/L; for pest or weed control at 0.5 µg/mL: dose 0.5 mg/L; for pest or weed control at 1 µg/mL: dose 1 mg/L. Here is the method: (§1) After being dissolved in a mixed solvent of acetone/methanol (1:1), the test compound was diluted with water containing 0.1% (wt) Tween 80 to the desired concentration.
(§2) With Leucania separata, Plutella xylostella, and Chilo suppressalis as targets, airbrush spray method was used for the determination of the insecticidal activity.
Determination method: 1) Preparation of Oryza sativa seedlings: Oryza sativa was cultivated in a constant temperature room (a temperature of 26-28V, a relative humidity of about 60-80%, and a light illumination of 16 hL:8 hD) in a small plastic cup with a diameter of 4.5 cm and a height of 4 cm, and when the Oryza sativa grew up to the 4-5 leaf stage, robust and consistent Oryza sativa seedlings were selected for chemical treatment, and 3 repetitions were performed for each treatment. 2) Preparation for test insects: Chilo suppressalis at 3rd instar larvae were raised continuously indoors. 3) The Oryza sativa stems were sprayed and insects were introduced. Spraying was performed uniformly on the whole plant of the Oryza sativa seedlings, with 15 ml of compound solution for each treatment. The blank control was treated first, and then the above operations were repeated in the order of the test concentration from low to high. After the Oryza sativa seedlings were sprayed, they were placed in a cool place to dry the liquid, and about 5 cm of stalks at the base of the stems were cut and fed to the test insects. A glass petri dish with a diameter of 90 mm was placed with filter paper at the bottom of the dish, and then was moisturized by adding water. After that, about 5 rice stalks and 10 larvae were placed in each dish, and the petri dish was sealed with a non-woven fabric and placed in a constant temperature room for cultivation. The number of remaining live insects was investigated 3 days after the treatment.

The subject of assay [2] is Plutella xylostella. Nature of the assay: Insecticidal activity against Plutella xylostella, airbrush spray on cabbage leaf discs. To be noted: foliar, 72 h; for pest or weed control at 5 µg/mL: 5 mg/L, Table 5, read-out: Lethality rate (%, 3 days after the treatment) 5 mg/L. The procedure: as §1, §2
(§3) Determination method: Cabbage leaves were punched into leaf discs with a diameter of 2 cm with a puncher, and Airbrush spray treatment was carried out at a pressure of 10 psi (approximately 0.7 kg/cm^2) on the front and back sides of each leaf disc, with a spray volume of the compound to be tested of 0.5 ml. After drying in the shade, 10 of 3rd instar larvae were introduced for each treatment, and each treatment was repeated 3 times for. After the treatment, it was placed in an observation room at 25° C. and a relative humidity of 60-70%, and 3 days after the treatment, the number of surviving insects was investigated, and the mortality rate was calculated.

Assay [3] deals with Leucania separata. The assay can be described thus: Insecticidal activity against Leucania separata, airbrush spray on corn leaf sections. To be noted: Mythimna separata, 72 h; dose 0.05 mg/L, 3 days after the treatment, 3rd instar larvae; read-out: lethality rate against Leucania separata. The procedure:
as §1, §2
as §3, with “Corn” for “Cabbage”, “cut” for “punched”, “into” for “into leaf discs with a diameter of”, “leaf sections,” for “with a puncher,”, “section,” for “disc,”, “times.” for “times for.”

[4] abbreviates: dose 0.05 mg/L, 3 days after the treatment, 3rd instar larvae, read-out: lethality rate against Plutella xylostella.
Setting [5] is: dose 0.5 mg/L, 3 days after the treatment, 3rd instar larvae, read-out: lethality rate against Plutella xylostella.
The mark [6] stands for this setting: dose 1 mg/L, 3 days after the treatment, 3rd instar larvae, read-out: lethality rate against Plutella xylostella.
Setting [7] is: 0.05 mg/L, parallel comparison test, Table 5, read-out: Lethality rate (%, 3 days after the treatment) 0.05 mg/L.
Where [8] appears, read: 0.5 mg/L, parallel comparison test, Table 5, read-out: Lethality rate (%, 3 days after the treatment) 0.5 mg/L.
Setting [9] is: 1 mg/L, parallel comparison test, Table 5, read-out: Lethality rate (%, 3 days after the treatment) 1 mg/L.

Where two headings read alike, the source gives them in different places. Some results are limits rather than exact numbers.

In the case of `N#CCN(C(=O)c1ccc(F)nc1)c1cccc(C(=O)Nc2c(Br)cc(C(F)(C(F)(F)F)C(F)(F)F)cc2C(F)(F)F)c1F` [Compound 9], the pest or weed control at 0.25 µg/mL in assay [1] is ≥ 90%. Moreover, the pest or weed control at 0.5 µg/mL in assay [1] and in assay [2] (setting [5]) was ≥ 90% each time. Besides, the pest or weed control at 1 µg/mL in assay [1] and in assay [2] (setting [6]) was ≥ 90% throughout. Moreover, the pest or weed control at 0.05 µg/mL in assay [2] (setting [4]) and in assay [3] was ≥ 90% in each case.

In the case of `N#CCCN(C(=O)c1ccc(F)nc1)c1cccc(C(=O)Nc2c(Br)cc(C(F)(C(F)(F)F)C(F)(F)F)cc2C(F)(F)F)c1F` [Compound 10], the “Lethality rate (%, 3 days after the treatment) 0.5 mg/L” value in assay [1] (0.5 mg/L, parallel comparison test, Table 6) was 100%. Also, the “Lethality rate (%, 3 days after the treatment) 1 mg/L” value in assay [1] (1 mg/L, parallel comparison test, Table 6) is given as 100%. Further, the “Lethality rate (%, 3 days after the treatment) 10 mg/L” value in assay [1] (10 mg/L, parallel comparison test, Table 6) stood at 100%. For the same compound, in assay [1], the pest or weed control at 0.25 µg/mL was ≥ 90%. Besides, the pest or weed control at 0.5 µg/mL was ≥ 90% in assay [1], 100% in assay [2] (setting [8]) and ≥ 90% in assay [2] (setting [5]). For the same compound, the pest or weed control at 1 µg/mL in assay [1] was ≥ 90%; in assay [2] (setting [9]) it was 100%; in assay [2] (setting [6]), ≥ 90%. Further, the pest or weed control at 0.05 µg/mL in assay [2] (setting [7]) is 100%; in assay [2] (setting [4]), ≥ 90%; in assay [3], ≥ 90%. Also, the pest or weed control at 5 µg/mL in assay [2] (parallel comparison test) was found to be 100%.

As for `N#CCCCN(C(=O)c1ccc(F)nc1)c1cccc(C(=O)Nc2c(Br)cc(C(F)(C(F)(F)F)C(F)(F)F)cc2C(F)(F)F)c1F` [Compound 11], the pest or weed control at 0.25 µg/mL in assay [1] is ≥ 90%. The pest or weed control at 0.5 µg/mL in assay [1] and in assay [2] (setting [5]) was ≥ 90% throughout. For the same compound, the pest or weed control at 1 µg/mL in assay [1] and in assay [2] (setting [6]) was ≥ 90% throughout. The pest or weed control at 0.05 µg/mL in assay [2] (setting [4]) and in assay [3] was ≥ 90% throughout.

In the case of `N#CCCCCN(C(=O)c1ccc(F)nc1)c1cccc(C(=O)Nc2c(Br)cc(C(F)(C(F)(F)F)C(F)(F)F)cc2C(F)(F)F)c1F` [Compound 12], the pest or weed control at 0.25 µg/mL in assay [1] was ≥ 90%. Further, the pest or weed control at 0.5 µg/mL in assay [1] and in assay [2] (setting [5]) was ≥ 90% throughout. For the same compound, the pest or weed control at 1 µg/mL in assay [1] and in assay [2] (setting [6]) was ≥ 90% each time. In addition, the pest or weed control at 0.05 µg/mL in assay [2] (setting [4]) and in assay [3] was ≥ 90% each time.

With `N#CCN(C(=O)c1ccc(F)nc1)c1cccc(C(=O)Nc2c(I)cc(C(F)(C(F)(F)F)C(F)(F)F)cc2C(F)(F)F)c1F` [Compound 13], in assay [1], the pest or weed control at 0.25 µg/mL is ≥ 90%. Moreover, the pest or weed control at 0.5 µg/mL in assay [1] and in assay [2] (setting [5]) was ≥ 90% in each case. In addition, the pest or weed control at 1 µg/mL in assay [1] and in assay [2] (setting [6]) was ≥ 90% throughout. For the same compound, the pest or weed control at 0.05 µg/mL in assay [2] (setting [4]) and in assay [3] was ≥ 90% throughout.

Take `N#CCCN(C(=O)c1ccc(F)nc1)c1cccc(C(=O)Nc2c(I)cc(C(F)(C(F)(F)F)C(F)(F)F)cc2C(F)(F)F)c1F` [Compound 14]: the pest or weed control at 0.25 µg/mL in assay [1] is ≥ 90%. Also, the pest or weed control at 0.5 µg/mL in assay [1] and in assay [2] (setting [5]) was ≥ 90% in each case. Besides, the pest or weed control at 1 µg/mL in assay [1] and in assay [2] (setting [6]) was ≥ 90% throughout. In addition, the pest or weed control at 0.05 µg/mL in assay [2] (setting [4]) and in assay [3] was ≥ 90% throughout.

Turning to `N#CCCCN(C(=O)c1ccc(F)nc1)c1cccc(C(=O)Nc2c(I)cc(C(F)(C(F)(F)F)C(F)(F)F)cc2C(F)(F)F)c1F` [Compound 15], in assay [1], the pest or weed control at 0.25 µg/mL is ≥ 90%. Moreover, the pest or weed control at 0.5 µg/mL in assay [1] and in assay [2] (setting [5]) was ≥ 90% throughout. The pest or weed control at 1 µg/mL in assay [1] and in assay [2] (setting [6]) was ≥ 90% each time. Further, the pest or weed control at 0.05 µg/mL in assay [2] (setting [4]) and in assay [3] was ≥ 90% each time.

For `N#CCCCCN(C(=O)c1ccc(F)nc1)c1cccc(C(=O)Nc2c(I)cc(C(F)(C(F)(F)F)C(F)(F)F)cc2C(F)(F)F)c1F` [Compound 16], in assay [1], the pest or weed control at 0.25 µg/mL was ≥ 90%. Also, the pest or weed control at 0.5 µg/mL in assay [1] and in assay [2] (setting [5]) was ≥ 90% in each case. The pest or weed control at 1 µg/mL in assay [1] and in assay [2] (setting [6]) was ≥ 90% throughout. For the same compound, the pest or weed control at 0.05 µg/mL in assay [2] (setting [4]) and in assay [3] was ≥ 90% each time.

For `N#CCN(C(=O)c1ccc(C(F)(F)F)nc1)c1cccc(C(=O)Nc2c(Br)cc(C(F)(C(F)(F)F)C(F)(F)F)cc2Br)c1F` [Compound 17], the pest or weed control at 1 µg/mL in assay [1] and in assay [2] (setting [6]) was ≥ 90% in each case. The pest or weed control at 0.05 µg/mL in assay [3] is ≥ 90%.

Turning to `N#CCN(C(=O)c1ccc(C(F)(F)F)nc1)c1cccc(C(=O)Nc2c(Br)cc(C(F)(C(F)(F)F)C(F)(F)F)cc2C(F)(F)F)c1F` [Compound 25], in assay [1], the pest or weed control at 0.25 µg/mL was ≥ 90%, the pest or weed control at 0.5 µg/mL is ≥ 90% and the pest or weed control at 1 µg/mL was ≥ 90%. For the same compound, in assay [2] (setting [5]), the pest or weed control at 0.5 µg/mL was ≥ 90%. The pest or weed control at 1 µg/mL in assay [2] (setting [6]) is ≥ 90%. The pest or weed control at 0.05 µg/mL in assay [3] is ≥ 90%.

Turning to `N#CCCN(C(=O)c1ccc(C(F)(F)F)nc1)c1cccc(C(=O)Nc2c(Br)cc(C(F)(C(F)(F)F)C(F)(F)F)cc2C(F)(F)F)c1F` [Compound 26], in assay [1], the pest or weed control at 0.25 µg/mL was ≥ 90%. Also, the values for the pest or weed control at 0.5 µg/mL in assay [1], in assay [2] (setting [8]) and in assay [2] (setting [5]) were ≥ 90%, 96.7% and ≥ 90%, respectively. Also, the pest or weed control at 1 µg/mL in assay [1] is ≥ 90%; in assay [2] (setting [9]), 100%; in assay [2] (setting [6]) it was ≥ 90%. Besides, the figures for the pest or weed control at 0.05 µg/mL in assay [2] (setting [7]) and in assay [3] were 73.3% and ≥ 90%, respectively. Moreover, in assay [2] (parallel comparison test), the pest or weed control at 5 µg/mL worked out at 100%.

Regarding `N#CCCCCN(C(=O)c1ccc(C(F)(F)F)nc1)c1cccc(C(=O)Nc2c(Br)cc(C(F)(C(F)(F)F)C(F)(F)F)cc2C(F)(F)F)c1F` [Compound 28], the pest or weed control at 0.5 µg/mL in assay [1] and in assay [2] (setting [5]) was ≥ 90% in each case. In addition, the pest or weed control at 1 µg/mL in assay [1] and in assay [2] (setting [6]) was ≥ 90% throughout. The pest or weed control at 0.05 µg/mL in assay [3] was ≥ 90%.

For the compound `N#CCN(C(=O)c1ccc(C(F)(F)F)nc1)c1cccc(C(=O)Nc2c(I)cc(C(F)(C(F)(F)F)C(F)(F)F)cc2C(F)(F)F)c1F` [Compound 29], in assay [1], the pest or weed control at 0.25 µg/mL is ≥ 90%. Moreover, the pest or weed control at 0.5 µg/mL in assay [1] and in assay [2] (setting [5]) was ≥ 90% in each case. Also, the pest or weed control at 1 µg/mL in assay [1] and in assay [2] (setting [6]) was ≥ 90% in each case. Further, in assay [3], the pest or weed control at 0.05 µg/mL is ≥ 90%.

For `N#CCCCCN(C(=O)c1ccc(C(F)(F)F)nc1)c1cccc(C(=O)Nc2c(I)cc(C(F)(C(F)(F)F)C(F)(F)F)cc2C(F)(F)F)c1F` [Compound 32], the pest or weed control at 0.5 µg/mL in assay [1] and in assay [2] (setting [5]) was ≥ 90% each time. For the same compound, the pest or weed control at 1 µg/mL in assay [1] and in assay [2] (setting [6]) was ≥ 90% each time. Besides, the pest or weed control at 0.05 µg/mL in assay [3] was ≥ 90%.
